Experimental findings from US6646006B2, “Enhancement of vascular function by modulation of endogenous nitric oxide production or activity” (The Board of Trustees of the Leland Stanford Junior …, priority 1993, dated 2003) are described below.

The test system of assay [1] is hypercholesterolemic rabbits. In words: Regression of pre-existing atherosclerosis in hypercholesterolemic rabbits. Format: in vivo, rabbit. The conditions noted are these: for Lesion surface area of thoracic aortae: all arginine treated animals weeks 14-23 vs vehicle. From the text:
This is clinically important if arginine is to be useful in the treatment of pre-existing atherosclerosis in humans. Accordingly, New Zealand white rabbits (n=85) received normal chow or 0.5% cholesterol chow for 10 weeks. Subsequently, half of the hypercholesterolemic rabbits were given 2.25% (W/V) L-arginine in their drinking water. Thoracic aortae were harvested at weeks 10, 14, 18, or 23. Rings of aorta were used to assess NO-dependent vasodilation to acetylcholine (ACh). Maximal relaxation to ACh in the hypercholesterolemic rabbits receiving vehicle (CHOL) became progressively attenuated from 53.4% (at week 10) to 17.4% (by week 23). […] By contrast, hypercholesterolemic animals receiving arginine (ARG) manifested improved endothelium-dependent relaxation associated with a reduction of plaque area at 14 and 18 weeks.

Assay [2] concerns hypercholesterolemic rabbits. As to the kind of experiment: Histomorphometry and lesion surface area planimetry of thoracic aorta and left main coronary artery. Format: in vivo, rabbit. From the text: Study design: (See, Cooke et al., 1992, supra) Male New Zealand white rabbits (n=49) were assigned to one of three treatment groups: 10 were fed with normal rabbit chow for ten weeks (Control); 19 received chow enriched with 1% cholesterol (Chol); and 20 received a 1% cholesterol diet supplemented with 2.25% L-arginine hydrochloride in the drinking water (Arg.). […] Subsequently the animals were sacrificed and the left main coronary artery and the thoracic aorta were harvested for studies of vascular reactivity and histomorphometry. In some animals, blood was collected for studies of platelet and monocyte reactivity.
By contrast, the intimal cross-sectional area (i.e. amount of atherosclerotic plaque) of vessels from hypercholesterolemic animals receiving L-arginine supplementation was reduced in comparison to those from animals receiving cholesterol diet alone. In the Arg animals the reduction in the intimal lesion was most pronounced in the ascending thoracic aorta and left main coronary artery.
Changes in lesion surface area: In a second series of studies, the extent of the thoracic aorta involved by lesions was examined. In hypercholesterolemic rabbits receiving vehicle (n=6) or L-arginine supplement (n=6), thoracic aortae (from left subclavian artery to diaphragm) were harvested after ten weeks of treatment, bisected longitudinally, and stained with oil-red O. Vessels were photographed and vessel and lesion surface area determined by planimetry. Approximately 40% of the total surface area was covered with plaque in thoracic aortae from hypercholesterolemic animals receiving vehicle, whereas in thoracic aortae from arginine-treated hypercholesterolemic animals, less than 10% of the surface area was covered with plaque (FIG. 1).

Structures are written as SMILES.

On to `N=C(N)NCCC[C@H](N)C(=O)O` [L-arginine], for which, in assay [1] (23 weeks, 3 of 7 ARG animals with persistent improvement), the “plaque area of total surface of thoracic aorta” value is reported as 5.4%. In assay [1] (ARG animals), the “generation of vascular NO” value is “increased generation” and the “generation of vascular superoxide anion” value is recorded as “reduced generation”. In assay [1] (ARG animals at 14 and 18 weeks), the plaque area entry was “reduction”. Further, the endothelium-dependent relaxation result in assay [1] (ARG animals, 14 and 18 weeks) is on record as “improved”. Besides, the “Lesion surface area of thoracic aortae” value in assay [1] is on record as “significantly reduced”. Besides, the “Lesion surface area of thoracic aortae” value in assay [1] (listed as arginine) is “reduced”. For the same compound, the “atherosclerotic plaque in the left main coronary artery” value in assay [2] (hypercholesterolemic animals receiving arginine) is recorded as “essentially no atherosclerotic plaque developed”. In assay [2] (ten weeks, oil-red O, planimetry), the “surface area of thoracic aorta covered with plaque” value is “less than 10%”. Moreover, the “intimal cross-sectional area (amount of atherosclerotic plaque)” value in assay [2] (vs cholesterol diet alone) is “reduced”.
